Data set [1] has as its target Cellular tumor antigen p53 (Mus musculus) (UniProt P02340). In words: Induction of p53-dependent transcriptional activity in mouse JB6 Cl41 cells at 12.5 uM after 6 hrs. It counts as cell-based.
Data set [2] is described as follows: Cytotoxicity against mouse promotion-sensitive JB6 Cl41 cells by MTS assay. Type of data set: cell-based. A general note: Formazan colour is commonly taken as a measure of viable cells.
Another data set relates to HeLa. The data set can be described thus: Cytotoxicity against human HeLa cells by MTS assay. Type of data set: functional, cell-based.
The target of data set [3] is Transcription factor Jun (Mus musculus) (UniProt P05627). The data set can be described thus: Induction of AP1-dependent transcriptional activity in mouse JB6 Cl41 cells at 125 uM after 6 hrs. Type of data set: cell-based.
Another data set deals with JB6 Cl41. In words: Induction of NF-kappaB-dependent transcriptional activity in mouse JB6 Cl41 cells at 125 uM after 6 hrs. Type of data set: cell-based.
The nature of data set [4]: Cytotoxicity against mouse promotion-sensitive JB6 Cl41 cells up to 50 uM by MTS assay. It counts as cell-based.

The source made the active and inactive calls. No cut-off for these calls is given here.

Usually IC50 stands for the concentration at which inhibition is half-maximal. Lower therefore signals greater potency in that assay.

Cellular tumor antigen p53 (Mus musculus), sequence (P02340 whole entry): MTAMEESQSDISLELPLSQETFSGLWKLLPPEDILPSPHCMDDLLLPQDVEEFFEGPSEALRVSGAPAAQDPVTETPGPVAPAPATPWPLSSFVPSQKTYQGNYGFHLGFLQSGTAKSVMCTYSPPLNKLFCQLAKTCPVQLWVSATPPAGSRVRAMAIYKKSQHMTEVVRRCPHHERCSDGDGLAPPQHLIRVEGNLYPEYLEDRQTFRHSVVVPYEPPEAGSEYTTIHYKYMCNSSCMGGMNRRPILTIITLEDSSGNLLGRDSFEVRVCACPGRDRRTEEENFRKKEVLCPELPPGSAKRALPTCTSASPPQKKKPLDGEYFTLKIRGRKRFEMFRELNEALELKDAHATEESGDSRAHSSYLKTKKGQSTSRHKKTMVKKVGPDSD
Transcription factor Jun (Mus musculus), sequence (P05627 whole entry): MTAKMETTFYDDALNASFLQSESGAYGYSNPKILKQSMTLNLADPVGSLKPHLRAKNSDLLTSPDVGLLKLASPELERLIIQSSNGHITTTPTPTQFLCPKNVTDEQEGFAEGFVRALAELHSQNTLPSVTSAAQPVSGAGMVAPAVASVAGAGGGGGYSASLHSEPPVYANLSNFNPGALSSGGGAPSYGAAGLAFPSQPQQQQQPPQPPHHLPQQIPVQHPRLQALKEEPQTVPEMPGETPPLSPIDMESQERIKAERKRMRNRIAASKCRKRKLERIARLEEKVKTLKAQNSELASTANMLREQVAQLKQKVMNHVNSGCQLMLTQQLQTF

For the compound `CC(C)CCC[C@@](C)(O)[C@H]1[C@@H](O)C[C@H]2[C@@H]3C[C@H](O[C@@H]4O[C@H](C)[C@@H](O)[C@H](O[C@@H]5O[C@H](C)[C@@H](O[C@@H]6O[C@H](C)[C@@H](O)[C@H](O)[C@H]6O[C@@H]6O[C@H](C)[C@H](O)[C@H](O)[C@H]6O)[C@H](O)[C@H]5O[C@@H]5O[C@H](C)[C@@H](O)[C@H](O)[C@H]5O)[C@H]4O)[C@H]4C[C@@H](OS(=O)(=O)O)CC[C@]4(C)C3=CC[C@@]21C` [ARCHASTEROSIDE B], the fold change (FC) in data set [1] was 1.3; in data set [3], 1.7. Also, the results for the IC50 (in data set [2]; in the data set on HeLa) were 18 µM and 14 µM, respectively. Moreover, in the data set on JB6 Cl41, the result was inactive.
With `CC[C@@H](C(C)C)[C@@H]1O[C@H]1[C@@](C)(O)[C@H]1[C@@H](O)C[C@H]2[C@@H]3C[C@H](O[C@@H]4O[C@H](CO)[C@@H](O)[C@H](O[C@@H]5O[C@H](C)[C@@H](O[C@@H]6O[C@H](C)[C@@H](O)[C@H](O)[C@H]6O[C@@H]6O[C@H](C)[C@H](O)[C@H](O)[C@H]6O)[C@H](O)[C@H]5O[C@@H]5O[C@H](C)[C@@H](O)[C@H](O)[C@H]5O)[C@H]4O)[C@H]4C[C@@H](OS(=O)(=O)O)CC[C@]4(C)C3=CC[C@]12C` [ARCHASTEROSIDE A], the half-inhibitory concentration (IC50) was 37 µM in data set [2] and 24 µM with HeLa.
As to `CC(C)[C@H](C)[C@@H]1O[C@H]1[C@@](C)(O)[C@H]1[C@@H](O)C[C@H]2[C@@H]3C[C@H](O[C@@H]4O[C@H](CO)[C@@H](O)[C@H](O[C@@H]5O[C@H](C)[C@@H](O[C@@H]6O[C@H](C)[C@@H](O)[C@H](O)[C@H]6O[C@@H]6O[C@H](C)[C@H](O)[C@H](O)[C@H]6O)[C@H](O)[C@H]5O[C@@H]5O[C@H](C)[C@@H](O)[C@H](O)[C@H]5O)[C@H]4O)[C@H]4C[C@@H](OS(=O)(=O)[O-])CC[C@]4(C)C3=CC[C@]12C.[Na+]` [REGULAROSIDE A], half-maximal inhibition in the data set on HeLa (IC50) required 110 µM. The Activity entry in data set [4] is “Non-toxic”.

The values are drawn from ChEMBL document CHEMBL1158618, “Two new asterosaponins, archasterosides A and B, from the Vietnamese starfish Archaster typicus and their anticancer properties” (Bioorg Med Chem Lett, 2010).
